The text below walks through data of the supplement of paper PMC10307832.

What all share (test): relative viability (nuclei count vs DMSO), 5 days (fraction); higher = more cells survive
Compound in the assay “RU-SKI 43 + Pemetrexed”: CC[C@@H](C)CNCC(=O)N1CCC2=C([C@@H]1COC3=CC=CC(=C3)C)C=CS2 [RU-SKI 43] + Nc1nc2[nH]cc(CCc3ccc(C(=O)N[C@@H](CCC(=O)O)C(=O)O)cc3)c2c(=O)[nH]1 [Pemetrexed] (partner 0.2 µM)
In short, it runs like this: (§1)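 Lung cancer cell lines, seeded in 1536-well plates, were treated the following day by pin tool with a single drug or with five library-drug doses (not always all listed) in √10 steps on top of a fixed anchor-drug dose. Cells were fixed and nuclei stained in one step after 5 days, and nuclei were counted. Relative viability is the nuclei count for treated wells divided by that for vehicle wells, reported as medians of duplicate plates.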

Compound in the assay “RU-SKI 43 + OSI-027”: CC[C@@H](C)CNCC(=O)N1CCC2=C([C@@H]1COC3=CC=CC(=C3)C)C=CS2 [RU-SKI 43] + COc1cccc2cc(-c3nc([C@H]4CC[C@H](C(=O)O)CC4)n4ncnc(N)c34)[nH]c12 [OSI-027] (partner 0.5 µM)
Put shortly:
as §1

Compound in the assay “Irinotecan + Pictilisib”: CCc1c2c(nc3ccc(OC(=O)N4CCC(N5CCCCC5)CC4)cc13)-c1cc3c(c(=O)n1C2)COC(=O)[C@]3(O)CC [Irinotecan] + CS(=O)(=O)N1CCN(Cc2cc3nc(-c4cccc5[nH]ncc45)nc(N4CCOCC4)c3s2)CC1 [Pictilisib] (partner 1 µM)
In short, it runs like this:
as §1

Compound in the assay “RU-SKI 43 + Vorinostat”: CC[C@@H](C)CNCC(=O)N1CCC2=C([C@@H]1COC3=CC=CC(=C3)C)C=CS2 [RU-SKI 43] + O=C(CCCCCCC(=O)Nc1ccccc1)NO [Vorinostat] (partner 1 µM)
In short, it runs like this: as §1

As to PC-3 [JPC-3], the relative viability with RU-SKI 43 + Pemetrexed (first compound 0.1 µM) amounted to 1.09; in the assay with RU-SKI 43 + Pemetrexed (first compound 0.3162 µM) it was 0.917; in the assay with RU-SKI 43 + Pemetrexed (first compound 1 µM), 1.37; with RU-SKI 43 + Pemetrexed (first compound 3.162 µM), 1.15; in the assay with RU-SKI 43 + Pemetrexed (first compound 10 µM), 1.2; in the assay with RU-SKI 43 + OSI-027 (first compound 0.1 µM), 0.682. Moreover, the relative viability in the assay with RU-SKI 43 + OSI-027 (first compound 0.3162 µM) was 0.862; with RU-SKI 43 + OSI-027 (first compound 1 µM), 0.797; in the assay with RU-SKI 43 + OSI-027 (first compound 3.162 µM), 0.804; in the assay with RU-SKI 43 + OSI-027 (first compound 10 µM), 0.366; with Irinotecan + Pictilisib (first compound 0.6325 µM) it was 0.309; with Irinotecan + Pictilisib (first compound 2 µM), 0.535. Besides, the relative viability with Irinotecan + Pictilisib (first compound 6.325 µM) turned out to be 0.315; in the assay with Irinotecan + Pictilisib (first compound 20 µM), 0.344; in the assay with RU-SKI 43 + Vorinostat (first compound 0.1 µM) it was 0.947; in the assay with RU-SKI 43 + Vorinostat (first compound 0.3162 µM) it was 0.727; with RU-SKI 43 + Vorinostat (first compound 1 µM), 0.982; with RU-SKI 43 + Vorinostat (first compound 3.162 µM) it was 0.651. Also, the relative viability with RU-SKI 43 + Vorinostat (first compound 10 µM) came out at 0.876.

As to PC-14, the relative viability with RU-SKI 43 + Pemetrexed (first compound 0.1 µM) came to 0.132; with RU-SKI 43 + Pemetrexed (first compound 0.3162 µM) it was 0.13; with RU-SKI 43 + Pemetrexed (first compound 1 µM), 0.133; with RU-SKI 43 + Pemetrexed (first compound 3.162 µM), 0.151; in the assay with RU-SKI 43 + Pemetrexed (first compound 10 µM), 0.13; with RU-SKI 43 + OSI-027 (first compound 0.1 µM), 0.844. The relative viability in the assay with RU-SKI 43 + OSI-027 (first compound 0.3162 µM) is 1.07; with RU-SKI 43 + OSI-027 (first compound 1 µM), 0.93; in the assay with RU-SKI 43 + OSI-027 (first compound 3.162 µM) it was 0.965; with RU-SKI 43 + OSI-027 (first compound 10 µM), 0.75; with Irinotecan + Pictilisib (first compound 0.6325 µM), 0.652; with Irinotecan + Pictilisib (first compound 2 µM), 0.425. The relative viability turned out to be 0.257 in the assay with Irinotecan + Pictilisib (first compound 6.325 µM); 0.194 with Irinotecan + Pictilisib (first compound 20 µM); 0.661 with RU-SKI 43 + Vorinostat (first compound 0.1 µM); 0.69 in the assay with RU-SKI 43 + Vorinostat (first compound 0.3162 µM); 0.739 with RU-SKI 43 + Vorinostat (first compound 1 µM); 0.86 in the assay with RU-SKI 43 + Vorinostat (first compound 3.162 µM). Further, in the assay with RU-SKI 43 + Vorinostat (first compound 10 µM), the relative viability turned out to be 0.585.

Regarding RERF-LC-KJ, the relative viability in the assay with RU-SKI 43 + Pemetrexed (first compound 0.1 µM) is 0.48; in the assay with RU-SKI 43 + Pemetrexed (first compound 0.3162 µM), 0.462; with RU-SKI 43 + Pemetrexed (first compound 1 µM) it was 0.508; with RU-SKI 43 + Pemetrexed (first compound 3.162 µM) it was 0.457; in the assay with RU-SKI 43 + Pemetrexed (first compound 10 µM), 0.482; with RU-SKI 43 + OSI-027 (first compound 0.1 µM) it was 0.505. The relative viability with RU-SKI 43 + OSI-027 (first compound 0.3162 µM) came to 0.514; with RU-SKI 43 + OSI-027 (first compound 1 µM), 0.603; with RU-SKI 43 + OSI-027 (first compound 3.162 µM), 0.56; with RU-SKI 43 + OSI-027 (first compound 10 µM) it was 0.548; with Irinotecan + Pictilisib (first compound 0.6325 µM), 0.516; with Irinotecan + Pictilisib (first compound 2 µM) it was 0.422. The relative viability with Irinotecan + Pictilisib (first compound 6.325 µM) turned out to be 0.455; with Irinotecan + Pictilisib (first compound 20 µM) it was 0.418; with RU-SKI 43 + Vorinostat (first compound 0.1 µM), 0.695; with RU-SKI 43 + Vorinostat (first compound 0.3162 µM), 0.699; in the assay with RU-SKI 43 + Vorinostat (first compound 1 µM), 0.654; with RU-SKI 43 + Vorinostat (first compound 3.162 µM), 0.702. Also, the relative viability with RU-SKI 43 + Vorinostat (first compound 10 µM) was 0.546.

SK-LU-1: the relative viability came out at 0.969 with RU-SKI 43 + Pemetrexed (first compound 0.1 µM); 1.16 with RU-SKI 43 + Pemetrexed (first compound 0.3162 µM); 1.07 with RU-SKI 43 + Pemetrexed (first compound 1 µM); 1.04 with RU-SKI 43 + Pemetrexed (first compound 3.162 µM); 0.939 with RU-SKI 43 + Pemetrexed (first compound 10 µM); 0.324 with RU-SKI 43 + OSI-027 (first compound 0.1 µM). For the same cell line, the relative viability with RU-SKI 43 + OSI-027 (first compound 0.3162 µM) stood at 0.375; with RU-SKI 43 + OSI-027 (first compound 1 µM), 0.342; with RU-SKI 43 + OSI-027 (first compound 3.162 µM) it was 0.361; with RU-SKI 43 + OSI-027 (first compound 10 µM), 0.317; with Irinotecan + Pictilisib (first compound 0.6325 µM), 0.444; in the assay with Irinotecan + Pictilisib (first compound 2 µM), 0.447. Moreover, the relative viability with Irinotecan + Pictilisib (first compound 6.325 µM) worked out at 0.322; in the assay with Irinotecan + Pictilisib (first compound 20 µM) it was 0.247; with RU-SKI 43 + Vorinostat (first compound 0.1 µM), 0.738; in the assay with RU-SKI 43 + Vorinostat (first compound 0.3162 µM), 0.893; with RU-SKI 43 + Vorinostat (first compound 1 µM) it was 0.882; in the assay with RU-SKI 43 + Vorinostat (first compound 3.162 µM), 0.795. Further, in the assay with RU-SKI 43 + Vorinostat (first compound 10 µM), the relative viability was 0.775.

Regarding SK-MES-1, the relative viability with RU-SKI 43 + Pemetrexed (first compound 0.1 µM) is 0.962; in the assay with RU-SKI 43 + Pemetrexed (first compound 0.3162 µM), 1.13; with RU-SKI 43 + Pemetrexed (first compound 1 µM), 1.12; in the assay with RU-SKI 43 + Pemetrexed (first compound 3.162 µM), 0.964; with RU-SKI 43 + Pemetrexed (first compound 10 µM), 0.916; with RU-SKI 43 + OSI-027 (first compound 0.1 µM) it was 0.491. Also, the relative viability is 0.65 with RU-SKI 43 + OSI-027 (first compound 0.3162 µM); 0.737 with RU-SKI 43 + OSI-027 (first compound 1 µM); 0.791 in the assay with RU-SKI 43 + OSI-027 (first compound 3.162 µM); 0.569 with RU-SKI 43 + OSI-027 (first compound 10 µM); 0.336 in the assay with Irinotecan + Pictilisib (first compound 0.6325 µM); 0.319 with Irinotecan + Pictilisib (first compound 2 µM). The relative viability with Irinotecan + Pictilisib (first compound 6.325 µM) was determined as 0.254; with Irinotecan + Pictilisib (first compound 20 µM), 0.257; with RU-SKI 43 + Vorinostat (first compound 0.1 µM), 1.15; with RU-SKI 43 + Vorinostat (first compound 0.3162 µM), 1.45; with RU-SKI 43 + Vorinostat (first compound 1 µM), 1.28; with RU-SKI 43 + Vorinostat (first compound 3.162 µM), 1.21. In addition, the relative viability with RU-SKI 43 + Vorinostat (first compound 10 µM) stood at 1.1.

For the cell line SW 1573, the relative viability is 0.674 in the assay with RU-SKI 43 + Pemetrexed (first compound 0.1 µM); 0.942 in the assay with RU-SKI 43 + Pemetrexed (first compound 0.3162 µM); 0.991 with RU-SKI 43 + Pemetrexed (first compound 1 µM); 0.867 with RU-SKI 43 + Pemetrexed (first compound 3.162 µM); 0.759 in the assay with RU-SKI 43 + Pemetrexed (first compound 10 µM); 0.634 in the assay with RU-SKI 43 + OSI-027 (first compound 0.1 µM). In addition, the relative viability worked out at 0.797 with RU-SKI 43 + OSI-027 (first compound 0.3162 µM); 0.682 with RU-SKI 43 + OSI-027 (first compound 1 µM); 0.741 with RU-SKI 43 + OSI-027 (first compound 3.162 µM); 0.611 with RU-SKI 43 + OSI-027 (first compound 10 µM); 0.435 in the assay with Irinotecan + Pictilisib (first compound 0.6325 µM); 0.37 in the assay with Irinotecan + Pictilisib (first compound 2 µM). The relative viability stood at 0.173 in the assay with Irinotecan + Pictilisib (first compound 6.325 µM); 0.155 in the assay with Irinotecan + Pictilisib (first compound 20 µM); 0.746 in the assay with RU-SKI 43 + Vorinostat (first compound 0.1 µM); 0.997 with RU-SKI 43 + Vorinostat (first compound 0.3162 µM); 0.963 with RU-SKI 43 + Vorinostat (first compound 1 µM); 0.934 with RU-SKI 43 + Vorinostat (first compound 3.162 µM). Moreover, the relative viability with RU-SKI 43 + Vorinostat (first compound 10 µM) is 0.767.
